Measurements as given in patent US9139592B2, “Modulators of Nrf2 and uses thereof” (TRT PHARMA INC., priority 2010, dated 2015).
Entries after “also recorded” stand apart in the source; their conditions may differ.

Key:
Type in all cases: cell-based
[1] = test system: Nrf2 nuclear translocation in HepG2 cells; assay: Western blot of nuclear Nrf2 (Nrf2 nuclear translocation) in HepG2 cells; details: 24 h
Method: (§1) Cells are treated with test compounds at designated concentrations and are harvested at 24 h. Sixty microgram of cell-lysate protein and 35 ug of nuclear extract are loaded into each lane, and electrophoresed through a 4-20% gradient SDS-PAGE gel (Bio-Rad, Mississauga, ON, Canada), and transferred onto a nitrocellulose membrane. The membrane is incubated with primary antibody and subsequently incubated with HRP-conjugated secondary antibody. Finally, ECL detection is carried out, and the results were recorded on X-ray film by autophotography.
(§2) The 23 top-score molecules from the first round of virtual screening are initially tested in the cell-based ARE-driven luciferase assay. Specifically, HepG2 cell line are transfected with ARE-driven pGL3 luciferase vector and then exposed to individual test compounds at 10, 50 μM. Classical Nrf2 inducers EQ and SFN were used as the positive controls. […] To examine the effect of these active compounds on Nrf2 nuclear translocation, Western blot analysis is used to measure the nuclear level of Nrf2 after cells are exposed to these compounds.

[2] = test system: ARE-driven luciferase activity (Nrf2) in HepG2 cells; assay: ARE-driven luciferase assay in HepG2 cells; details: test compounds at 10, 50 μM, 24 h
Method: (§3) One representative ARE (A2-ARE) from GSTA2 is used in this work, and A2-ARE are cloned into the KpnI and MluI sites of pGL3-promoter vector, which contains a heterologous SV40 promoter and a firefly luciferase reporter gene. Cells are seeded at 1×10^5 per well using 24-well plate, grown overnight before being transfected transfected with pGL3 and other designated constructs using LipofectAMINE (Invitrogen) for 5 h. The plasmid pRL, containing a renilla reniformis luciferase reporter gene, is cotransfected as internal control to correct transfection efficiency. After transfection, cells are treated with test compounds at designated concentrations for 24 h prior to harvesting. The cells are then washed twice with phosphate-buffered saline and harvested in 100 uL of 1× passive lysis buffer (Promega, Madison, Wis., USA). The luciferase activities are analyzed in 20-uL cell extracts with the Dual luciferase Assay™ kit (Promega) on a Lumat LB 9507 luminometer (Berthold Technologies, Oak Ridge, Tenn., USA). The related luciferase activities are expressed as a ratio of the pGL3 reporter activity to that of the control plasmid pRL. The fold of induction is expressed as ratio of induction from the treated cells versus the untreated. Values represent measurements from three independent experiments performed in triplicate and are presented as the mean±SEM.
as §2

[3] = test system: γ-glutamylcysteine synthetase (GCS), a Nrf2-regulated protein, in HepG2 cells; assay: Western blot of γ-glutamylcysteine synthetase (GCS) in HepG2 whole cell extracts; details: 24 h; for induction of GCS: whole cell protein extracts
Method: FIG. 3B illustrates endogenous γ-glutamylcysteine synthetase (GCS), a Nrf2-regulated protein, in whole cell protein extracts, detected by Western blotting. HepG2 cells were treated with EQ, SFN, DMSO, BM10, BM31 and BM40 at designated concentrations for 24 h.
as §1
Nrf2 is a master transcription factor regulating multiple ARE-regulated antioxidant and detoxifying enzymes, such as GCS, glutathione S-transferase (GST), NAD(P)H quinone oxidoreductase-1 (NQO1), and UDP glucuronosyltransferase (UGT), etc. The effects of our lead compounds on GCS are examined.

MCF-7 cells [4] = assay: MCF-7 cell viability (MTT, 72 h); details: dose range 10 nM to 10 μM
Method: FIG. 9 illustrates MCF-7 cell survival curves for BM10, BM31, BM40 and SFN. MCF-7 cells were treated with test compounds at designated concentrations for 72 hours. Viable cells were evaluated by MTT assays. Experiments were performed in triplicate and repeated twice.
(§4) Cells are seeded at 4×10^3 per well using 96-well plate, grown overnight before being treated with test compounds for 72 h. Viable cells are measured by MTT assays. To evaluate the ability of test compounds in protecting MCF-7 cells from the damage of B[a]P, MCF-7 cells are seeded at 2×10^3 per well using 96-well plate, grown overnight before being treated with test compounds at designed concentration for 48 h. Next, cells are treated with 160 nM B[a]P in the presence of test compound for another 72 h. The viable cells are measured using MTT assays. Experiments are performed in triplicate and repeated twice.

MCF-7 cells [5] = assay: Protection of MCF-7 cells from cytotoxic damage of B[a]P (MTT); details: low dose range 50 nM to 200 nM, 48 h pre-incubation, then 160 nM B[a]P + compound 72 h
Method: as §4
To test the capability of BM compounds in protecting against the cytotoxic effect of B[a]P, cellular assays using MCF-7 cells are performed. Incubation of MCF-7 cells with various concentrations of BM31 for 48 hours is followed by incubation with 160 nM B[a]P+the BM31 for 72 hours. MTT assays are performed to evaluate the protection effect of the BM31. DMSO without B[a]P was used as a control.

Nrf2/Keap1 complex = target: T1, Nrf2/Keap1 complex (Homo sapiens, UniProt Q14145); assay: Co-IP of Keap1 and Nrf2 in co-transfected 293T cells; details: 293T cells co-transfected with Nrf2 and Keap1; 24 h; BM31 50 μM, SFN 5 μM
T1 construct: expressed in transfected cells; host or cells: 293T
Method: FIG. 5 illustrates 293T cell lysates immunoprecipitated with Keap1 antibody and the eluted proteins were immunoblotted with Nrf2 antibody. Lane 1: Nrf2 transfection; Lanes 2, 3, 4: Nrf2 and Keap1 co-transfection. Lanes 2, 3, 4: treated with DMSO, BM31 (50 μM) and SFN (5 μM), respectively.
To study the effect of BM31 on the interaction of Keap1 and Nrf2, Co-IP experiments are performed. 293T cells are successfully transfected and achieved high Nrf2 expression in this cell line. In the co-IP experiments, 293T cells are co-transfected with Nrf2 and Keap1 expression vectors. After transfection, the cells are treated with SFN and BM31 for 24 h before harvesting. The cell lysates are used for IP with Keap1 antibody. The eluted proteins are immunoblotted with Nrf2 antibody. […] For example, arsenic induces the Nrf2-dependent response through markedly enhancing the interaction between Keap1 and Cul3, subunits of the E3 ubiquitin ligase for Nrf2, which leads to impaired dynamic assembly/disassembly of the E3 ubiquitin ligase and thus decreases its ligase activity, resulting in inhibition of Nrf2 ubiquitination and degradation. Our further work will determine whether BM31 induces Nrf2 via a mechanism similar to that of arsenic.

[6] = test system: Keap1 mutants (C257S, C273S, C288S, C297S) / ARE-driven luciferase in 293T cells; assay: ARE-driven luciferase assay in 293T cells co-transfected with Nrf2 and Keap1 IVR cysteine mutants; details: for effect of Keap1 C273S and C288S mutations on activation of ARE-driven luciferase activities / effect of Keap1 C297S mutant on potency in activating ARE-driven luciferase activities: 293T cells
Method: as §3
Keap1 is a multi-domain protein, in which the IVR domain contains 4 cysteine residues, C257, C273, C288 and C297. The known Nrf2 inducers may interact with these cysteine residues in the IVR domain, resulting in conformational change of Keap1 and ultimately activating Nrf2. To investigate the role of these active cysteine residues in the Nrf2-inducing activity of BM31, 4 Keap1 mutants (C257S, C273S, C288S and C297S) are tested. BM31 is selected for this and further investigation because the dose-response is consistent for its capability in inducing Nrf2 nuclear translocation and induction of enzyme GCS (FIG. 3). Co-transfection experiments to investigate the effects of Keap1 IVR cysteine mutants on ARE-driven luciferase activities are performed. Specifically, 293T cells are co-transfected with ARE-driven pGL3 luciferase report vector, Keap1 vector with and without the Nrf2 expression vector (FIG. 4). After transfection, the cells are exposed to BM31 at 50 μM for 16 h before harvest. The cell lysates are used for measurement of ARE-driven luciferase activities. […] Our conclusion is that BM31 targets the binding site around C297 in the IVR domain of Keap1, and mutation of residue C297 partially abolishes the Nrf2-inducing effect of BM31.

T1 sequence (Q14145 whole entry): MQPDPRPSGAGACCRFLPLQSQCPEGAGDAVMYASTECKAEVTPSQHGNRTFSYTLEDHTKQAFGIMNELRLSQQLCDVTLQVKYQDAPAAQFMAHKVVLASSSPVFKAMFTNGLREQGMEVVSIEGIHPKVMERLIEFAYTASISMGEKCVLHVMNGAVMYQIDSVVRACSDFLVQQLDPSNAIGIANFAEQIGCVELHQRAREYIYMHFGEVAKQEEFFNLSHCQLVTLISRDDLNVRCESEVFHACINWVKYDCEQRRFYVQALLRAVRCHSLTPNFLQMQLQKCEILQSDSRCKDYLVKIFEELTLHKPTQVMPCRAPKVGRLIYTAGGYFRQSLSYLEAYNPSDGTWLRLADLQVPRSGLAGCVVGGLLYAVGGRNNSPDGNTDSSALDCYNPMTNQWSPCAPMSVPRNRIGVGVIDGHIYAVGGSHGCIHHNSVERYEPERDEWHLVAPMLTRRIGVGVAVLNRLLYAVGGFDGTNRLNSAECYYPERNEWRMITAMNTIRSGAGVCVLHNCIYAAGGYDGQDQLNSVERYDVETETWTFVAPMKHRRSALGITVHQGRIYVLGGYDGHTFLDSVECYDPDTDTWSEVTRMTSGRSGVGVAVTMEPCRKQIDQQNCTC
T1 sequence (Q16236 whole entry partner): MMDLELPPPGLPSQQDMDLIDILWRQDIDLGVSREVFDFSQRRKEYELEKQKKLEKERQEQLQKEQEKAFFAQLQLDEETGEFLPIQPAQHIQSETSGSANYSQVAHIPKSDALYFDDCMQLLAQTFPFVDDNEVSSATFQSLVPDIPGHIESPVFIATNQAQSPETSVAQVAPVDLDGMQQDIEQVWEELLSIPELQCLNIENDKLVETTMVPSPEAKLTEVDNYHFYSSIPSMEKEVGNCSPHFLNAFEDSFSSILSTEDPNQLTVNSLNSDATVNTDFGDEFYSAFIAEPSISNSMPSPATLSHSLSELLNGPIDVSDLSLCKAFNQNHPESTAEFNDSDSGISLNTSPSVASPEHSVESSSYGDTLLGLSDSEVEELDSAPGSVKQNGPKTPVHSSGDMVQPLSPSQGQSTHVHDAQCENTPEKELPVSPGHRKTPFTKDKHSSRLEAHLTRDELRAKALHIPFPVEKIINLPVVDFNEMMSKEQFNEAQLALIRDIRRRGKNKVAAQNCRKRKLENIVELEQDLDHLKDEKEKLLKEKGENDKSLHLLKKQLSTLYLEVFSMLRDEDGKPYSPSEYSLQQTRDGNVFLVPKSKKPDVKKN

SMILES | induction of Nrf2 nuclear translocation (nuclear Nrf2 by Western blot) [1] | induction of ARE-driven luciferase activities [2] | induction of GCS [3] | potency in elevating nuclear Nrf2 compared with SFN [1] | cytotoxic effects on proliferation of MCF-7 cells (MCF-7 cells [4]) | also measured
COc1ccc2nc3cc(Cl)ccc3c(C#N)c2c1 [BM4] | modest activity; also recorded: triggered Nrf2 nuclear translocation | potently induce |  |  |  | 
O=C1C[C@@H](c2ccccc2)Oc2cc(O)cc(O)c21 [BM5] | triggered Nrf2 nuclear translocation |  |  |  |  | 
Nc1nc(N)c2ncn(Cc3ccccc3)c2n1 [BM6] | modest activity; also recorded: triggered Nrf2 nuclear translocation | potently induce |  |  |  | 
Nc1nc(S)c2ncn(C3CCCCC3)c2n1 [BM9] | modest activity; also recorded: triggered Nrf2 nuclear translocation |  |  |  |  | 
Ic1ncnc2c1ncn2[C@H]1CCCS1 [BM10] | most potent; also recorded: triggered Nrf2 nuclear translocation |  | modest potency; also recorded: induced expression | comparable to that of SFN | do not have cytotoxic effects | 
Cc1n[nH]c2c(Cc3ccco3)nnc(O)c12 [BM18] | modest activity; also recorded: triggered Nrf2 nuclear translocation | potently induce |  |  |  | 
Cc1nnc(Cc2ccco2)c2[nH]nc(C)c12 [BM19] | triggered Nrf2 nuclear translocation |  |  |  |  | 
Clc1ncnc2c1ncn2[C@H]1CCCS1 [BM31] | potent Nrf2 inducers; also recorded: triggered Nrf2 nuclear translocation |  | induced expression | comparable to that of SFN | do not have cytotoxic effects | protection of MCF-7 cells from cytotoxic damage of B[a]P (MCF-7 cells [5]): significant protection; also recorded: provides protections; potency in inducing GCS compared with SFN and EQ [3]: comparable to that of SFN and EQ; effect on Nrf2/Keap1 complex (Keap1 IP, Nrf2 immunoblot) (Nrf2/Keap1 complex): increases the Nrf2/Keap1 complex; effect of Keap1 C273S and C288S mutations on activation of ARE-driven luciferase activities [6]: do not completely abolish; effect of Keap1 C297S mutant on potency in activating ARE-driven luciferase activities [6]: limits the potency; also recorded: abolished the Nrf2 induction activity; induction of ARE-driven luciferase activities with C257S, C273S or C288S mutant Keap1 ([6]; 293T cells co-transfected with ARE-pGL3, Nrf2 and mutant Keap1, BM31 50 μM, 16 h): potently induces
O=C(c1ccccc1)C1COc2ccccc2C1O (stereo not shown) [BM40] | potent Nrf2 inducers; also recorded: triggered Nrf2 nuclear translocation |  | induced expression | comparable to that of SFN | do not have cytotoxic effects | potency in inducing GCS compared with SFN and EQ [3]: comparable to that of SFN and EQ
C[S+]([O-])CCCCN=C=S (stereo not shown) [SFN, sulforaphane, reference compound] |  |  |  |  |  | effect on Nrf2/Keap1 complex (Keap1 IP, Nrf2 immunoblot) (Nrf2/Keap1 complex): increases the Nrf2/Keap1 complex; effect of Keap1 C273S and C288S mutations on activation of ARE-driven luciferase activities [6]: do not completely abolish; effect of Keap1 C297S mutant on potency in activating ARE-driven luciferase activities [6]: did not affect the potency
